{"source": "patent US20030059956A1", "about": "“Method to follow progression of kidney disease” (priority 2001, published 2003)", "system": "urinary TGF-β1", "experiment": "Urinary TGF-β1 excretion in proteinuric patients, add-on losartan crossover trial on background lisinopril", "format": "in vivo, human", "settings": "add-on losartan 50 mg/d for 4 weeks on lisinopril 40 mg/d", "procedure": "Patients previously administered angiotensin-receptor blockers (ARBs) or with estimated creatinine clearances of less than 30 mumin were excluded. A separate group of 12 healthy volunteers with normal BP, normal albuminuria, and no history of kidney disease or diabetes served as the control group for urinary TGF-β1 levels.\nThe study was a two-period, crossover, randomized, controlled trial. Seventeen (17) patients were administered a sequence of either losartan, 50 mg/d, for 4 weeks, 2-week washout, and placebo for 4 weeks or placebo for 4 weeks, 2-week washout, and losartan, 50 mg/d, for 4 weeks. […] Twenty-four-hour urine was collected for protein, sodium, urea, creatinine, and urinary TGF-β1 measurement. Because standard therapy for patients with proteinuria and renal failure includes ACE inhibitors, ACE inhibitor therapy was not discontinued in any patient enrolled in the study.\nAppropriate corrections for concentrations were made and values were expressed as TGF-β1 in picograms per milligram of creatinine. […] TGF-β expressed as TGF-β in picograms per milligram of creatinine was calculated as follows:\nThe normality assumption was tested with the Kolmogrov Smirnov statistic, and homogeneity of variances was tested using Lavene's test. […] Data were analyzed by two-way mixed-model analysis of variance with subjects as the random variable and drug or placebo assignment as the fixed variable. […]"}
{"smiles": "CCCCc1nc(Cl)c(CO)n1Cc1ccc(-c2ccccc2-c2nn[nH]n2)cc1", "note": "[losartan]", "values": [{"measurement": "reduction in urinary TGF-β1 levels", "setting": "95% CI 16 to 55, P=0.017", "value": 38, "unit": "%"}, {"measurement": "urinary TGF-β1 level after losartan", "setting": "geometric mean, pre-losartan level 13.3 (95% CI 11.4 to 15.5)", "value": 8.2, "unit": "pg/mg creatinine"}]}
